From paper PMC9822066 (Molecules, 2022)
Values joined by “and” are separate entries in the source; they are usually repeats but may differ in a detail not shown here. Identical values can stand only once. Like-named read-outs stand apart in the source and are kept apart here.

What was measured:
[1] = system: SH-SY5Y neuroblastoma cells; assay: Neuroprotection against H2O2, LDH necrosis assay; format: cell-based; settings: 10 µM, 300 µM H2O2, 24 h
[2] = target: T1, human recombinant AChE (hAChE) (Homo sapiens, UniProt P22303); assay: Ellman's colorimetric assay, hAChE inhibition; format: biochemical
T1 construct: purchased Sigma–Aldrich (Steinheim, Germany)
T1 sequence (P22303 32-614): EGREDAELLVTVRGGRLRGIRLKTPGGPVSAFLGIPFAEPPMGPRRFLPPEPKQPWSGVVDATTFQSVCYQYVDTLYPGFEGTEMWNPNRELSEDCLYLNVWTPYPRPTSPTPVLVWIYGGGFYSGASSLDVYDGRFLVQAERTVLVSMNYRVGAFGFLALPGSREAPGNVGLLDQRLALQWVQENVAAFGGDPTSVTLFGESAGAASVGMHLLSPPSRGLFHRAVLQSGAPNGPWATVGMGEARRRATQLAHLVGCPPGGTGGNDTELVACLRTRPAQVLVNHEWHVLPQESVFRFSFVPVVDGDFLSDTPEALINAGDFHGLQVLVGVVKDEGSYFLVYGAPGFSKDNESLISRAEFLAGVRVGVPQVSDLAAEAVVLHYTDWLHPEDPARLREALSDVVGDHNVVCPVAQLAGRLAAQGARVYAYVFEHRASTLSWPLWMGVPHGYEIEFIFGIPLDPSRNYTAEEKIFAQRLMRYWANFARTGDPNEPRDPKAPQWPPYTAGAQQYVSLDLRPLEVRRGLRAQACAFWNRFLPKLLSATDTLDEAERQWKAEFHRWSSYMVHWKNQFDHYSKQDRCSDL

in vitro = settings: PAMPA
[3] = target: BuChE from equine serum (eqBuChE) (Equus caballus, UniProt P81908); assay: biochemical; format: biochemical; settings: mean ± SEM, triplicate independent experiments
Sequence of BuChE from equine serum (eqBuChE) (P81908 whole entry): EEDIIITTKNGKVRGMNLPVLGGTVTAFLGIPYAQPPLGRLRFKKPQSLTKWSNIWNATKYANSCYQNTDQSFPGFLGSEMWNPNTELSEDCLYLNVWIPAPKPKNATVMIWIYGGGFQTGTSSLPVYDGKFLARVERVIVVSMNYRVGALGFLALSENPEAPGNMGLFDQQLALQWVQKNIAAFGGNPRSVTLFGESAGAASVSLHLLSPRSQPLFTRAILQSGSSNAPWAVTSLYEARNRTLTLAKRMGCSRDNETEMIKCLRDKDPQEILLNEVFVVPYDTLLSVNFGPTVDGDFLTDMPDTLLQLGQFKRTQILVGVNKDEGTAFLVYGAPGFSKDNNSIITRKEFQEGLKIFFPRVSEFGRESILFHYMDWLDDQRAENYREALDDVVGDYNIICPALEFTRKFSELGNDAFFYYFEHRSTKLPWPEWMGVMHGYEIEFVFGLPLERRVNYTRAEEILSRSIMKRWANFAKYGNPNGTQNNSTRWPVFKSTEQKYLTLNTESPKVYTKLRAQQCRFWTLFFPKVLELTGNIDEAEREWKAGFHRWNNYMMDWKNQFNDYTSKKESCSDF

human H3R = target: T2, human H3R (Homo sapiens, UniProt Q9Y5N1); assay: [3H]Nα-methylhistamine radioligand binding assay in HEK293 cells stably expressing hH3R
T2 construct: expressed in transfected cells; host or cells: HEK293
T2 sequence (Q9Y5N1 whole entry): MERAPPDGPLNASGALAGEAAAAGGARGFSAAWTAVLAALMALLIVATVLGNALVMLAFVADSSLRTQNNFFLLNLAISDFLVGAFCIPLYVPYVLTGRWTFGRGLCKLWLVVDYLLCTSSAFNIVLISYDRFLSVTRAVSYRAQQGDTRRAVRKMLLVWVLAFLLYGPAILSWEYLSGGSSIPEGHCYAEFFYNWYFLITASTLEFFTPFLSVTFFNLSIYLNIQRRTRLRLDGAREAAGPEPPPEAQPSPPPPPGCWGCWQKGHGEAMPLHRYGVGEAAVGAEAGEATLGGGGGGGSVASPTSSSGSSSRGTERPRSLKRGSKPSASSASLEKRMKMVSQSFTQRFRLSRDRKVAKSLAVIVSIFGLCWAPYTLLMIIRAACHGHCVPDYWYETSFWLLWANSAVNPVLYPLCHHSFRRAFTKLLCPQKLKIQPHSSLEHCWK
Description: Final compounds were tested for their H3R affinity in a radioligand binding assay using [^3H]N^α-methylhistamine as radioligand in HEK293 cells stably expressing hH3R [25]. […] Affinity to hH3R stably expressed in HEK293 cells was evaluated in a radioligand binding assay as described previously. […] The radioactivity was counted in a MicroBeta Trilux counter (PerkinElmer). Data were fitted to a one-site curve-fitting equation with Prism 6 (GraphPad Software, San Diego, CA, USA) and Ki values were calculated from IC50 values (from at least three experiments performed in duplicates) according to the Cheng−Prusoff equation [52].

[4] = system: SH-SY5Y neuroblastoma cells; assay: Highest non-toxic concentration estimated before the neuroprotection assay; format: cell-based
Description: […]. however, it was statistically insignificant. […] Statistical significance was calculated against the number of necrotic cells in the H2O2-treated population. Additionally, the MTS test was performed in which the viability of cells was measured.

mice [5] = assay: Formalin test; format: in vivo; settings: Mus musculus, ip
eqBuChE = eqBuChE (Equus caballus, UniProt P81908); assay: Kinetic study of eqBuChE inhibition (Lineweaver-Burk, Cornish-Bowden); format: biochemical, equine; settings: substrate butyrylthiocholine
Sequence of eqBuChE (P81908 whole entry): as the sequence (P81908 whole entry) above
Description: (§1) The inhibitor was tested in the concentrations giving enzyme activities between 30% and 80%. For each concentration of the inhibitor, substrate (ATC/BTC) was added at concentrations of 0.3, 0.24, 0.18, 0.12, 0.06, and 0.04 mM in the wells. The stock solutions of ATC and BTC (0.5 mM) were prepared in water and diluted before use. Each experiment was performed in triplicate. Vmax and Km values of the Michaelis−Menten kinetics were calculated by nonlinear regression from substrate−velocity curves. Lineweaver–Burk and Cornish–Bowden plots were calculated using linear regression in GraphPad Prism 5 (GraphPad Software, San Diego, CA, USA).

[6] = PAMPA, triplicate
[7] = target: T3, electric eel AChE (eeAChE) (Electrophorus electricus, UniProt O42275); assay: biochemical; settings: mean ± SEM, triplicate independent experiments; read-out: eeAChE IC50
T3 construct: purchased Sigma–Aldrich (Steinheim, Germany)
T3 sequence (O42275 24-633): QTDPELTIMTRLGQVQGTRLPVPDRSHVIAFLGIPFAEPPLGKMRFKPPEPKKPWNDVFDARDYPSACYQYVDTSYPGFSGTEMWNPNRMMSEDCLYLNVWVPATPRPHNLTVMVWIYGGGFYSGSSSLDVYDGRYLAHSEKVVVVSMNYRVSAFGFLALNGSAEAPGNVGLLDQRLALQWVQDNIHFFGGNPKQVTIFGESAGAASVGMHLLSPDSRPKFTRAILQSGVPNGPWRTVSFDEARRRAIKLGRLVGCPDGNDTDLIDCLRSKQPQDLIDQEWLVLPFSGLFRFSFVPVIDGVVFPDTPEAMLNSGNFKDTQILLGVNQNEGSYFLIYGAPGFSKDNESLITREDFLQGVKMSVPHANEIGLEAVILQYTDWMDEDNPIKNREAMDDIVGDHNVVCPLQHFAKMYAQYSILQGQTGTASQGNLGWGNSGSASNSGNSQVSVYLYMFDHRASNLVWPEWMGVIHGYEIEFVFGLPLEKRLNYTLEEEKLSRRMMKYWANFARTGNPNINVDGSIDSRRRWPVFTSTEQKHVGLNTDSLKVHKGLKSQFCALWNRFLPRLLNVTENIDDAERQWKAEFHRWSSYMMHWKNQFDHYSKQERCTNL

[8] = Metabolic stability in mouse liver microsomes; format: in vitro ADME
Description: The metabolic stability of 6 was investigated first in silico with the use of MetaSite 6.0.1 software.
The in silico prediction of the most possible metabolic pathways was conducted by MetaSite 6.0.1. Software (Molecular Discovery Ltd., Borehamwood, UK). […] The compound was incubated for 120 min at 37 °C in TRIS-HCl buffer (pH 7.4) with the addition of NADPH Regeneration System (Promega, Madison, WI, USA). The LC/MS analysis and MS/MS fragmentations were used as a tool for the determination of the substrate remaining and the structures of the metabolites.

hMAO B = target: T4, hMAO B (Homo sapiens, UniProt P27338); assay: Fluorometric MAO assay, hMAO B inhibition; format: biochemical; settings: mean ± SEM of two independent experiments, read-out: hMAO B %Inh. at 1 µM
T4 sequence (P27338 1-520): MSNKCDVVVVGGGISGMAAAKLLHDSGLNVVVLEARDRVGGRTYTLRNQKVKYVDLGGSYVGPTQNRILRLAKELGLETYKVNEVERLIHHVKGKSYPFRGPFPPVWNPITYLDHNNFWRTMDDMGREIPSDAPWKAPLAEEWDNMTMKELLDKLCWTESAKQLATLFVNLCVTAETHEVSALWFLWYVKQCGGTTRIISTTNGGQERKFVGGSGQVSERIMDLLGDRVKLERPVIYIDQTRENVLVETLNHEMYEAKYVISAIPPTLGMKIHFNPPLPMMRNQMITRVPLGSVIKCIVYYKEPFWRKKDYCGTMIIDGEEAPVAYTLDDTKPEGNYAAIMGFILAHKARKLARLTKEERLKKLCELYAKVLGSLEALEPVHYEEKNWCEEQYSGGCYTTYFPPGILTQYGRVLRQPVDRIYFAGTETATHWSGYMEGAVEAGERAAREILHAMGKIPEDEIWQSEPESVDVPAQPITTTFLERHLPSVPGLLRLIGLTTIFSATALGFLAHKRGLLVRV

eeAChE = target: T5, eeAChE (Electrophorus electricus, UniProt O42275); assay: Kinetic study of eeAChE inhibition (Lineweaver-Burk, Cornish-Bowden); format: biochemical, electric eel; settings: substrate acetylthiocholine
T5 construct: purchased Sigma–Aldrich (Steinheim, Germany)
T5 sequence (O42275 24-633): as the sequence (O42275 24-633) above
Description: as §1

[9] = target: T6, BuChE from human serum (hBuChE) (Homo sapiens, UniProt P06276); assay: Ellman's colorimetric assay, hBuChE inhibition; format: biochemical
T6 construct: Human BuChE from human serum was provided by Vivonics (Bedford, MA, USA); purchased Vivonics (Bedford, MA, USA); host or cells: human serum
T6 sequence (P06276 29-602): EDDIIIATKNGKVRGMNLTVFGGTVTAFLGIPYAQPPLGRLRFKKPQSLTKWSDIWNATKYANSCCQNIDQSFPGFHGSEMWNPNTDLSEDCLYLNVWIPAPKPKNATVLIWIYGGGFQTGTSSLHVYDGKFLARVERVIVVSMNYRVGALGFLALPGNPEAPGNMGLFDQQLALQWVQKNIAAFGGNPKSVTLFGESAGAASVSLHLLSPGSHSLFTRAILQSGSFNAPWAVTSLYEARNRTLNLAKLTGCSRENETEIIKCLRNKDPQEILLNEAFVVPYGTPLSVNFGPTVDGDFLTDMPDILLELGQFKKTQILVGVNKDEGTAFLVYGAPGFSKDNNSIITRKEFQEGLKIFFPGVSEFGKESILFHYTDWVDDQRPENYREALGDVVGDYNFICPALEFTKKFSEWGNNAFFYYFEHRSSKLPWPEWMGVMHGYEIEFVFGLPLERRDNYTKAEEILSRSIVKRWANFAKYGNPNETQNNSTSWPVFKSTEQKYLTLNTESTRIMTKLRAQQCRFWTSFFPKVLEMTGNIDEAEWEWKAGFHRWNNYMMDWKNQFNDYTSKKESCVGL

[10] = system: SH-SY5Y neuroblastoma cells; assay: Neuroprotection against H2O2, MTS viability assay; format: cell-based; settings: 10 µM, 300 µM H2O2, 24 h
mice [11] = assay: Passive Avoidance Test, scopolamine-induced amnesia; format: in vivo; set-up: unit not given here; settings: mean ± SEM
hepatoma HepG2 cells = assay: Hepatotoxicity, MTS viability of HepG2 cells
Description: Doxorubicin (DX) at the concentration of 1 μM was used as the reference cytostatic drug.
A multifunctional reader EnSpire (PerkinElmer, Waltham, MA, USA) was used to measure the absorbance.

**Q.** Which results are given for `O=C(O)C(=O)O.O=C(c1ccc(F)cc1)c1ccc(OCCCCCN2CCCCC2)cc1` [Compound 6, (4-Fluorophenyl) (4-((5-(piperidin-1-yl)pentyl)oxy)phenyl)methanone hydrogen oxalate]?
**A.** effect on necrosis (LDH test) [1]: slight inhibition of the necrosis process; IC50 [2]: 9590 nM; Papp (in vitro): 6.3 ×10⁻⁶ cm/s; IC50 [3]: 170 nM and 172 nM; Ki (human H3R): 8 nM; highest non-toxic concentration [4]: 10 µM; ED50 (mice [5]; 0–5 min after formalin, read-out: ED50 phase I (acute pain)): 20.9 mg/kg; ED50 (mice [5]; 15–30 min after formalin, read-out: ED50 phase II (inflammatory pain)): 17.5 mg/kg; mechanism of eqBuChE inhibition (eqBuChE): mix type; Pe ± SD [6]: 6.3 ± 0.6 10^−6 cm/s; IC50 [7]: 2310 nM; % biotransformed ([8]; MLMs, 120 min, UPLC): around 34%; % Remaining ([8]; MLMs, 120 min incubation): 65.95%; Metabolic Pathway ([8]; MLMs, metabolites M1, M2, M3): reduction of carbonyl group hydroxylation reduction of carbonyl group, hydroxylation; metabolic stability (in words) ([8]; mouse liver microsomes): moderate metabolic stability; remaining at 2 h ([8]; mouse, mouse liver microsomes, pH 7.4, MLMs, 120 min incubation): 66%; inhibition at 1 µM (hMAO B): 25%; mechanism of eeAChE inhibition (eeAChE): non-competitive; IC50 [9]: 1160 nM; effect on viability (MTS test) [10]: no increase in the viability; latency time in the retention trial (mice [11]; 15 mg/kg i.p. in scopolamine-treated mice): 47.07 ± 17.56; latency time in the retention trial (mice [11]; 15 mg/kg i.p., without scopolamine): 151.89 ± 5.46; latency time in the retention trial (mice [11]; 30 mg/kg i.p. in scopolamine-treated mice): 51.56 ± 21.17; concentration decreasing HepG2 cell viability (hepatoma HepG2 cells; 72 h incubation, MTS): ≥ 10 µM; concentration range with lack of hepatotoxicity effect (hepatoma HepG2 cells; HepG2 cells): 0.1 to 1 µM
